# Measurements reported in patent US20200038412A1, “METHODS OF TREATING ALZHEIMER'S DISEASE USING AMINOSTEROL COMPOSITIONS” (Enterin, Inc., priority 2018, published 2020).
# Assays:
# [1] = tested on: patients with PD and constipation; assay: Phase 2 trial Stage 2: adverse events; type: in vivo, human
# Description: (§1) In Stage 2, 34 patients were evaluated.
# [2] = tested on: patients with PD and constipation; assay: Phase 2 trial Stage 2: bowel function under daily oral dosing (escalation, fixed dose, wash-out); type: in vivo, human
# Description: Following successful screening, all subjects underwent a 14-day run-in period where the degree of constipation was assessed through a validated daily log (Zinsmeister et al. 2013) establishing baseline CSBMs/week. Subjects with an average of <3 CSBMs/week proceeded to dosing.
# as §1
# The primary efficacy outcome variable was whether or not a subject was a “success” or “failure”. This is an endpoint based on subject diary entries for the “fixed dose” period prior to the endpoint assessment defined as average complete stool frequency increase by 1 or more over baseline, or 3 or more complete spontaneous stools/week. The subject was deemed a “success” if s/he met one or more of the criteria listed above, otherwise the subject was deemed a “failure”. The primary analysis was based on all subjects with a baseline assessment and an assessment at the end of the “fixed-dose” period and was a comparison of the proportion of successes with 0.10 (the null hypothesis corresponding to no treatment effect).
# C. elegans model of PD = conditions: in vivo, C. elegans (Perni et al. 2017); cited from earlier work
# [3] = Pharmacokinetics of orally administered squalamine (ENT-01) in Stage 1; type: in vivo, human
# Description: PK data were collected on the 10 patients enrolled in Stage 1 and 10 patients enrolled in Stage 2 to determine the extent of systemic absorption. In Stage 1, PK data were obtained at each visit, pre-medication, at 1, 2, 4, 8 and 24 hours (Table 10). In Stage 2, PK was measured on days 1 and 6 of the randomization period pre-medication, at 1, 2, 4 and 8 hours (Table 11).
# The mean Cmax, Tmax and T1/2 and AUC of the squalamine ion following squalamine (ENT-01) oral dosing for Stage 1 patients. The PK analyses are only approximate, as the lower limit of the validated concentration range was 10 ng/ml; most of the measured concentrations fell below that value. The mean Cmax, Tmax and T1/2 and AUC of the squalamine ion following squalamine (ENT-01) oral dosing for Stage 2 patients. The PK analyses are only approximate, as the lower limit of the validated concentration range was 0.5 ng/ml.
# αS = αS (Homo sapiens, UniProt P37840); conditions: in vitro (Perni et al. 2017); cited from earlier work
# Solubility in water = type: physicochemical
# [4] = Preclinical oral dosing in dogs; type: in vivo
smiles,measurement,setting,value
"CC(C)[C@@H](CC[C@@H](C)[C@H]1CC[C@H]2[C@@H]3[C@H](O)C[C@H]4C[C@@H](NCCCNCCCCN)CC[C@]4(C)[C@H]3CC[C@]12C)OS(=O)(=O)O (single isomer, unassigned) [squalamine (ENT-01), squalamine]",AEs confined to the GI tract,[1]; Stage 2,63%
same,Diarrhea (common adverse events by dose),"[1]; Stage 2, 75 mg",7
same,"Dizziness, lightheadedness included (common adverse events by dose)","[1]; Stage 2, 75 mg",8
same,Nausea (common adverse events by dose),"[1]; Stage 2, 75 mg",3
same,Diarrhea (common adverse events by dose),"[1]; Stage 2, 100 mg",10
same,"Dizziness, lightheadedness included (common adverse events by dose)","[1]; Stage 2, 100 mg",7
same,Nausea (common adverse events by dose),"[1]; Stage 2, 100 mg",12
same,Diarrhea (common adverse events by dose),"[1]; Stage 2, 125 mg",3
same,"Dizziness, lightheadedness included (common adverse events by dose)","[1]; Stage 2, 125 mg",8
same,Nausea (common adverse events by dose),"[1]; Stage 2, 125 mg",4
same,Diarrhea (common adverse events by dose),"[1]; Stage 2, 150 mg",2
same,"Dizziness, lightheadedness included (common adverse events by dose)","[1]; Stage 2, 150 mg",2
same,Nausea (common adverse events by dose),"[1]; Stage 2, 150 mg",11
same,Diarrhea (common adverse events by dose),"[1]; Stage 2, 175 mg",1
same,"Dizziness, lightheadedness included (common adverse events by dose)","[1]; Stage 2, 175 mg",0
same,Nausea (common adverse events by dose),"[1]; Stage 2, 175 mg",12
same,Diarrhea (common adverse events by dose),"[1]; Stage 2, 200 mg",3
same,Nausea (common adverse events by dose),"[1]; Stage 2, 200 mg",6
same,Diarrhea (common adverse events by dose),"[1]; Stage 2, 225 mg",3
same,Nausea (common adverse events by dose),"[1]; Stage 2, 225 mg",1
same,Diarrhea (common adverse events by dose),"[1]; Stage 2, 250 mg",2
same,patients with diarrhea,"[1]; Stage 2, 15/34 patients",44%
same,patients with nausea,"[1]; Stage 2, 18/34 patients",52.9%
same,"Abdominal pain, Mild","[1]; Stage 2, 34 dosed","4 (11.7) n, %"
same,"Abdominal pain, Moderate","[1]; Stage 2, 34 dosed","2 (5.8) n, %"
same,"Blood in urine, Mild","[1]; Stage 2, 34 dosed","0 n, %"
same,"Blood in urine, Moderate","[1]; Stage 2, 34 dosed","0 n, %"
same,"Diarrhea, Mild","[1]; Stage 2, 34 dosed","12 (35) n, %"
same,"Diarrhea, Moderate","[1]; Stage 2, 34 dosed","2 (5.8) n, %"
same,"Diarrhea, Severe","[1]; Stage 2, 34 dosed","1 (2.9) n, %"
same,"Difficulty falling asleep, Mild","[1]; Stage 2, 34 dosed","1 (3) n, %"
same,"Difficulty falling asleep, Moderate","[1]; Stage 2, 34 dosed","0 n, %"
same,"Dizziness, Mild","[1]; Stage 2, 34 dosed","7 (20.5) n, %"
same,"Dizziness, Moderate","[1]; Stage 2, 34 dosed","1 (2.9) n, %"
same,"Eye infection, Mild","[1]; Stage 2, 34 dosed","1 (3) n, %"
same,"Eye infection, Moderate","[1]; Stage 2, 34 dosed","0 n, %"
same,"Flatulence, Mild","[1]; Stage 2, 34 dosed","1 (3) n, %"
same,"Flatulence, Moderate","[1]; Stage 2, 34 dosed","0 n, %"
same,"Headache, Mild","[1]; Stage 2, 34 dosed","3 (8.8) n, %"
same,"Headache, Moderate","[1]; Stage 2, 34 dosed","0 n, %"
same,"Increased urinary frequency, Mild","[1]; Stage 2, 34 dosed","2 (5.8) n, %"
same,"Increased urinary frequency, Moderate","[1]; Stage 2, 34 dosed","0 n, %"
same,"Loss of appetite, Mild","[1]; Stage 2, 34 dosed","0 n, %"
same,"Loss of appetite, Moderate","[1]; Stage 2, 34 dosed","0 n, %"
same,"Nausea, Mild","[1]; Stage 2, 34 dosed","18 (52) n, %"
same,"Nausea, Moderate","[1]; Stage 2, 34 dosed","1 (2.9) n, %"
same,"Skin lesions-rash, Mild","[1]; Stage 2, 34 dosed","3 (8.8) n, %"
same,"Skin lesions-rash, Moderate","[1]; Stage 2, 34 dosed","0 n, %"
same,"Urinary retention, Mild","[1]; Stage 2, 34 dosed","1 (3) n, %"
same,"Urinary retention, Moderate","[1]; Stage 2, 34 dosed","0 n, %"
same,"Urinary tract infection, Mild","[1]; Stage 2, 34 dosed","1 (3) n, %"
same,"Urinary tract infection, Moderate","[1]; Stage 2, 34 dosed","2 (5.8) n, %"
same,"Vomiting, Mild","[1]; Stage 2, 34 dosed","2 (5.8) n, %"
same,"Vomiting, Moderate","[1]; Stage 2, 34 dosed","0 n, %"
same,"Worsening acid reflux, Mild","[1]; Stage 2, 34 dosed","4 (11.7) n, %"
same,"Worsening acid reflux, Moderate","[1]; Stage 2, 34 dosed","0 n, %"
same,"Worsening hemorrhoid, Mild","[1]; Stage 2, 34 dosed","1 (3) n, %"
same,"Worsening hemorrhoid, Moderate","[1]; Stage 2, 34 dosed","0 n, %"
same,patients terminated prior to completion because of recurrent dizziness,"[1]; Stage 2, two patients",5.8%
same,"Lower GI bleed, Severe","[1]; Stage 2, colonic diverticulosis, polyp, patient on aspirin, Plavix and naproxen, unrelated to ENT-01","1 (2.5) n, %"
same,improvement of ease of passage,[2]; 3.2 to 3.7,16%
same,response rate (CSBM within 24 hours of dosing on at least 2 of 3 days),"[2]; Stage 2, daily oral dosing, 75 mg",26%
same,"CSBM, weekly average","[2]; Stage 2, fixed dose, mean (SD), n = 34, baseline 1.2 (0.90)",3.8 (2.4) CSBM/week
same,"Suppository use / rescue medication, weekly average","[2]; Stage 2, fixed dose, mean (SD), n = 34, baseline 1.8 (1.92)",0.3 (0.67) /week
same,Consistency (Bristol stool scale 1-7),"[2]; Stage 2, fixed dose, mean (SD), n = 34, baseline 2.7 (1.20), listed as aminosterol",4.1
same,Ease of passage (Ease of evacuation scale 1-7),"[2]; Stage 2, fixed dose, mean (SD), n = 34, baseline 3.2 (0.73), listed as aminosterol",3.7
same,PAQ-SYM,"[2]; Stage 2, wash-out, mean (SD), baseline 1.3 (0.45)",1.1 (0.60)
same,PAQ-QOL,"[2]; Stage 2, wash-out, mean (SD), baseline 1.4 (0.49)",1.2 (0.63)
same,Rescue meds,"[2]; Stage 2, wash-out, mean (SD), baseline 1.8 (1.92)",1.0 (1.40)
same,Consistency,"[2]; Stage 2, wash-out, mean (SD), baseline 2.7 (1.20)",2.8 (1.39)
same,Ease,"[2]; Stage 2, wash-out, mean (SD), baseline 3.2 (0.73)",3.3 (0.81)
same,improvement of average CSBM/week,[2]; baseline 1.2 to fixed dose 3.8,216%
same,decrease of use of rescue medication,[2]; baseline 1.8/week to fixed dose 0.3,83%
same,improvement of SBM,[2]; baseline 2.6 to fixed dose 4.5,73%
same,CSBM frequency in the randomized cohort,"[2]; group later randomized to placebo (n = 9), fixed dose period (still on drug), baseline 1.6",3.3 CSBM/week
same,CSBM frequency in the randomized cohort,"[2]; group randomized to treatment (n = 6), fixed dose period, baseline 0.8",3.2 CSBM/week
same,CSBM frequency in the randomized cohort,"[2]; group randomized to treatment (n = 6), randomized period (4-6 days continued treatment), baseline 0.8",2.4 CSBM/week
same,CSBM frequency in the randomized cohort,"[2]; group randomized to treatment (n = 6), washout, baseline 0.8",0.9 CSBM/week
same,improvement of consistency (Bristol stool scale),[2]; mean 2.7 to 4.1,52%
same,mean dose required for a bowel response (prokinetic dose),[2]; patients with baseline ≥1 CSBM/week,120 mg
same,patients responding,[2]; within effective dose range 75 mg to 250 mg,85%
same,formation of aggregates of αS,C. elegans model of PD,inhibit the formation of aggregates of αS
same,AUC0-8 hr,"[3]; Stage 1, oral 50 mg, 10 patients",18.5 ng·h/mL
same,AUC0-8 hr,"[3]; Stage 1, oral 100 mg, 9 patients",29.6 ng·h/mL
same,AUC0-8 hr,"[3]; Stage 1, oral 200 mg, 6 patients",78.3 ng·h/mL
same,T1/2,"[3]; Stage 1, oral 200 mg, n = 5",9.0 (5) hours
same,approximate oral bioavailability,"[3]; Stage 1, oral dosing up to 200 mg, compared with prior phase 1 IV data",about 0.1%
same,bioavailability,"[3]; human, plasma, oral, PD patients, estimated from pharmacokinetic behavior of intravenously administered squalamine in prior clinical studies",< 0.3%
same,formation of aggregates of αS,αS,inhibit the formation of aggregates of αS
same,solubility in water,Solubility in water; neutral pH,weakly soluble
same,dissolution in water,Solubility in water; pH<3.5 (the pH of gastric fluid),readily dissolves
same,bioavailability,[4],limited bioavailability
same,tolerability,[4],well tolerated
same,oral bioavailability,[4]; preclinical studies,about 0.1%
